Consider 10 molecules from patent US20060239926A1, “Specific high-relaxivity compounds” (GUERBET, priority 2003, published 2006).

One data set addresses α5β1 (Homo sapiens, UniProt P05556+P08648). Particulars: cited from earlier work.
The next data set addresses αvβ5 (Homo sapiens, UniProt P06756+P18084). The settings on record: cited from earlier work.
The target in data set [1] is T1, human MMP-1 (Homo sapiens, UniProt P03956).
T1 sequence (P03956 100-469): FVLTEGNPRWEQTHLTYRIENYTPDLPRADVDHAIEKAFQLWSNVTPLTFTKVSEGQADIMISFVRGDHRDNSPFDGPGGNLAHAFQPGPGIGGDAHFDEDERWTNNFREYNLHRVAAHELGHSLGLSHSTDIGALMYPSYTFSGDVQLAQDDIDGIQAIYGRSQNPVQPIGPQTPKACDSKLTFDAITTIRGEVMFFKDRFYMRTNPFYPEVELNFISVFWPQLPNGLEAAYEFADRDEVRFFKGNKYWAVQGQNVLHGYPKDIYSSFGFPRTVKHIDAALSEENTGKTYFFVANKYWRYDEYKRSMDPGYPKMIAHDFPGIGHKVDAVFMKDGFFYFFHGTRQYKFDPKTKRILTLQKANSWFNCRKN
The settings on record: value of the peptide component, not of the Gd conjugate, read-out: IC50 OF THE PEPTIDE (LITERATURE); cited from earlier work.

Data set [2] deals with T1, human MMP-1. The data set is described as follows: In vitro MMP-inhibiting activity (fluorimetry), MMP-1. The class given is biochemical. Particulars: for CONCENTRATION OF PEPTIDE (with significant inhibitory effect): tested at 10^−5, 10^−7 and 10^−9 M with respect to peptides. How it is done: The inventors assayed the in vitro activity of the P947 and P967 gadolinium-chelate contrast products functionalized with matrix metalloproteases inhibitors (MMPs), on human MMP-1 and MMP-3. As regards the affinity of the biovector component, on the receptor, the controls were two peptides:
More precisely, the in vitro MMP-inhibiting activity was evaluated in the following way: • 1. Incubation of the test product in the presence of the MMP enzyme, at 37° C., for a defined period of time, and then measurement of the fluorescence of the medium (t=0). • 2. Induction of the enzyme reaction by addition of the substrate to (which becomes fluorescent when it is cleaved by the enzyme), and then incubation at 37° C. for 40 min. A second measurement of fluorescence is then taken (t=40). • 3. The activity of the MMP enzyme is determined by subtraction of the signal measured by fluorimetry: (t=40)-(t=0). • 4. The results are expressed as percentage inhibition of the activity of the control enzyme. • 5. The standard inhibitory product is TIMP-1.
The products were tested in duplicate, at 10^−5, 10^−7 and 10^−9 M with respect to peptides. Those which contain no peptides were treated in a manner similar to the corresponding functionalized contrast products.

For the next data set, the system named is tumours. The data set is described as follows: Study of MRI imaging between 30 minutes and 24 hours with Gd assays by ICP-MS. The data set is classed as in vivo. On the procedure: (§1) The molar BIO-FOLATE.I relaxivity in water is very good, in particular at 60 MHz: r1=53 mM^−1·s^−1. It is recalled that the relaxivity obtained with specific products of the prior art of the type such as dendrimer associated with folates is r1=9.32 mM^−1s^−1 per Gd (Investigative Radiology, January 2000, vol 35, p 56). • Study of MRI imaging between 30 minutes and 24 hours the contrast at the level of the tumour is very clear, in particular 1 to 2 hours after injection. In addition, Gd assays by ICP-MS; were carried out on the reference organs at the end of the assays using the imager. […] The tumour/muscle ratio is of the order of 4 to 10 times that observed with previously used contrast products. Experimental Conditions for the BIACORE 3000 Studies on P860 and BIO-FOLATE.I (Study of Affinity Between P860, BIO-FOLATE.I, and Folate Binding Protein by Means of BIAcore 3000).

Data set [3] addresses T2, Folate Binding Protein (FBP) (Bos taurus, UniProt P02702).
T2 construct: purchased Sigma F-0504
Nature of the data set: Study of affinity with Folate Binding Protein by means of BIAcore 3000. How it is done: as §1
PGM buffer: 100 mM KH2PO4, pH 7, 10% glycerol and 4 mM β-mercaptoethanol
The FBP was immobilized at 1 mg/ml in PGM buffer according to the protocols recommended by BIAcore for coupling amines. Next, the remaining active carboxylated groups are saturated with 1M ethanolamine, pH=8.
The folate binding was followed at four different concentrations (125, 250, 500 and 1000 μM). The association and the dissociation were studied with a flow rate at 30 μl/min. […]
For orientation: SPR reads the build-up and loss of mass on a sensor chip optically.

The subject of another data set is KB cells. Nature of the data set: In vitro study of binding/internalization in KB cells. The class given is cell-based, Human. The settings on record: 37° C., with or without excess free folic acid; ICP-MS assays.
Data set [4] in a line: Molar relaxivity (r1, r2) measurement. The data set is classed as physicochemical. The settings on record: 60 MHz; in water; 2 Gd per mol of product; uncertainty +/−5%. From the text:
Since BIO-FOLATE.I has 2 Gd per mol of product, the molar relaxivity values are summarized in this table (uncertainty +/−5%).

Another data set relates to KB tumours. Nature of the data set: Biodistribution study on nude mice bearing KB tumours. An excerpt: c. Biodistribution study on nude mice bearing KB tumours: this biodistribution study comprised competition between P860 and free-folic acid. A group of animals received normal food and a co-injection of folic acid with the product tested and another was given a folate-depleted diet through a single injection of the product tested.
Conditions for Biodistribution Study on Nude Mice Part 1: • Induction of subcutaneous tumours in nude female mice and […] of human KB cells. • Separation of the animals into 2 groups receiving a diet with or without folate (10 days). • The group with folate receives an additional injection of folic acid (25 μmol/kg IV) 5 minutes before the injections of contrast product (CP). • IV injection of CP then removal of organ samples (muscle, tumour, liver, kidneys) and plasma samples. Part 2: Assays by ICP-AES • Gd assay (P860, BIO-FOLATE.I, Dotarem): liver, kidney. Part 3: Bioanalysis: Assay by ICP-MS • Gd assay (P860, BIO-FOLATE.I, Dotarem): tumour, muscle, plasma
Supplementing with Folate • 5.5 mM folic acid diluted in PBS and then injected at a dose of 25 μmol/kg (4.54 ml/kg).
Folic acid and CP: IV administration (caudal vein).
The folic acid was injected 5 minutes before the injection of CP.
Results: Tumour Distribution of the PC—Gd

For the next data set, the system named is FBP. The settings on record: cited from earlier work; for affinity for FBP relative to folic acid: order: pemetrexed>CB3717>IAHQ>2-NH2-ZD1694.

*: point of attachment. Cbz = O=C(OCc1ccccc1)*; NHOH = ON*

α5β1, sequence (P08648 42-894 limits assumed): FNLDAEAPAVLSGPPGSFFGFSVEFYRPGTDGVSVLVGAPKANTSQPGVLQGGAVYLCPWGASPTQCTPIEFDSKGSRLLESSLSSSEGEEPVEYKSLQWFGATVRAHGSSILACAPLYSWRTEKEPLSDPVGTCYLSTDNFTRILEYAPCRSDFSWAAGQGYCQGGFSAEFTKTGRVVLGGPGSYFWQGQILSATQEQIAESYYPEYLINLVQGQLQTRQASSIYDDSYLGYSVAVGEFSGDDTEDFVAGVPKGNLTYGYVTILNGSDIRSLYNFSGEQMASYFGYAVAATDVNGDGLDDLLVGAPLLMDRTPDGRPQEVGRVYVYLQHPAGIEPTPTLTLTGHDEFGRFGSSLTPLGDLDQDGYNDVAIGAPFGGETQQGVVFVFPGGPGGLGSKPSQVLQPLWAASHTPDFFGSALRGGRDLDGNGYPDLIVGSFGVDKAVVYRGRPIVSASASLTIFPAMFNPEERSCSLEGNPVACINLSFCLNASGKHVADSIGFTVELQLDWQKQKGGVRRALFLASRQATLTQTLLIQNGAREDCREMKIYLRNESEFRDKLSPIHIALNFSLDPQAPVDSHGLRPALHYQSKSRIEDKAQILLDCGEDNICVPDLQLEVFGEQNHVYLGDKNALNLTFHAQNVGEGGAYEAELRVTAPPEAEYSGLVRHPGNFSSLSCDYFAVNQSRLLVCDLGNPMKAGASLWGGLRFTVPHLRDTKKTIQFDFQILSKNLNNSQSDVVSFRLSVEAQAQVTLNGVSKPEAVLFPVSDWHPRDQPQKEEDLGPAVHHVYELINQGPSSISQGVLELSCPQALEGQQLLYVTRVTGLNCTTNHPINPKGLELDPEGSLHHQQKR
α5β1, sequence (P08648 895-1049 partner limits assumed): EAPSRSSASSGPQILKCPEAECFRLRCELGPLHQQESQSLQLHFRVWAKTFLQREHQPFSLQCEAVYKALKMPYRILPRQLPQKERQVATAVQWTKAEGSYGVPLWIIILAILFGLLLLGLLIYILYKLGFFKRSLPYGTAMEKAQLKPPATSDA
α5β1, sequence (P05556 21-798): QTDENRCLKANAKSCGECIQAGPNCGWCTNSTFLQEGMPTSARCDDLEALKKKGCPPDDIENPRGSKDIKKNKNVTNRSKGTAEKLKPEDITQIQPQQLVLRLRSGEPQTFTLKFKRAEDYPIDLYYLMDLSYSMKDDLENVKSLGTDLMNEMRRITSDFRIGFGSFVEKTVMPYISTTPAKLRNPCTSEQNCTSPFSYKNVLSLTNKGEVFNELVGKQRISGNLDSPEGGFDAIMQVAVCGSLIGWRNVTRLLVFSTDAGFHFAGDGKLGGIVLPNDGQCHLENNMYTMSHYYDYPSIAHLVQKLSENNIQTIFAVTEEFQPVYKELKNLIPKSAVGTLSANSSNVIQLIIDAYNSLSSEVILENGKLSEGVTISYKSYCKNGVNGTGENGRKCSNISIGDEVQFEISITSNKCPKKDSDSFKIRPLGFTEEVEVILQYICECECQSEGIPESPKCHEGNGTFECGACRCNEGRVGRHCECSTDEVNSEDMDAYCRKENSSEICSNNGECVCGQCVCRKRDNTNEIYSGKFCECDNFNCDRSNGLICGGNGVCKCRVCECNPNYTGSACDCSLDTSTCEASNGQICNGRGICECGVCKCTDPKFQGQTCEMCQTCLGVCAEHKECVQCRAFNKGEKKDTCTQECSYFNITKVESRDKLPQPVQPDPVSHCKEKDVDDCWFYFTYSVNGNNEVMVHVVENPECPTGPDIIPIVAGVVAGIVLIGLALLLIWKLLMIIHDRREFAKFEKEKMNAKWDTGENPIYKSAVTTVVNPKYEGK
αvβ5, sequence (P06756 31-889 limits assumed): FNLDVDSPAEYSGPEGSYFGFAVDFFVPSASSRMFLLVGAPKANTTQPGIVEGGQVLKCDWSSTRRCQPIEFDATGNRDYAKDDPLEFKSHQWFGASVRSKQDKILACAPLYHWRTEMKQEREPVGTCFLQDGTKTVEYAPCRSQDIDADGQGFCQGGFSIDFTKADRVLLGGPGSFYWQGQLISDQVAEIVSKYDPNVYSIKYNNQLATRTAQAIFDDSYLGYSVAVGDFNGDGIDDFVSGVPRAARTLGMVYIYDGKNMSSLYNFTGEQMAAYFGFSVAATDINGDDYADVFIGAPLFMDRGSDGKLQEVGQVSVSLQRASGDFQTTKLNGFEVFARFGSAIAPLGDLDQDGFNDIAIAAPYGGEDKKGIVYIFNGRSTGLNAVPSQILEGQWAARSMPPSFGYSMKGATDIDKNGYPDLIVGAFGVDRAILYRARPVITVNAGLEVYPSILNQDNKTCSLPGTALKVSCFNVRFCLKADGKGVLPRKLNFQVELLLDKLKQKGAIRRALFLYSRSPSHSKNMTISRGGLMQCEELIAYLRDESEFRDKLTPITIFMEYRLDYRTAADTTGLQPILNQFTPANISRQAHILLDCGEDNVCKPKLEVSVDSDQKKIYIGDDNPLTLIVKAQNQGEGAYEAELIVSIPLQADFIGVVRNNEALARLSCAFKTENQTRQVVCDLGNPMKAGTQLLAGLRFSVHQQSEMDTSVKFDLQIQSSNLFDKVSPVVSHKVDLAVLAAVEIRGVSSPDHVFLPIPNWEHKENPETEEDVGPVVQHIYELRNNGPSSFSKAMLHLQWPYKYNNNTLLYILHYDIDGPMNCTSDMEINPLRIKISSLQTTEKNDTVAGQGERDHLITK
αvβ5, sequence (P06756 891-1048 partner limits assumed): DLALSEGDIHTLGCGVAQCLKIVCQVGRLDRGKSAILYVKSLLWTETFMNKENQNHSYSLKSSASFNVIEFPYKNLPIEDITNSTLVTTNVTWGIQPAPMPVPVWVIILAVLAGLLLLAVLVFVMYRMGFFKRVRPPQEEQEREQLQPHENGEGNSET
αvβ5, sequence (P18084 24-799): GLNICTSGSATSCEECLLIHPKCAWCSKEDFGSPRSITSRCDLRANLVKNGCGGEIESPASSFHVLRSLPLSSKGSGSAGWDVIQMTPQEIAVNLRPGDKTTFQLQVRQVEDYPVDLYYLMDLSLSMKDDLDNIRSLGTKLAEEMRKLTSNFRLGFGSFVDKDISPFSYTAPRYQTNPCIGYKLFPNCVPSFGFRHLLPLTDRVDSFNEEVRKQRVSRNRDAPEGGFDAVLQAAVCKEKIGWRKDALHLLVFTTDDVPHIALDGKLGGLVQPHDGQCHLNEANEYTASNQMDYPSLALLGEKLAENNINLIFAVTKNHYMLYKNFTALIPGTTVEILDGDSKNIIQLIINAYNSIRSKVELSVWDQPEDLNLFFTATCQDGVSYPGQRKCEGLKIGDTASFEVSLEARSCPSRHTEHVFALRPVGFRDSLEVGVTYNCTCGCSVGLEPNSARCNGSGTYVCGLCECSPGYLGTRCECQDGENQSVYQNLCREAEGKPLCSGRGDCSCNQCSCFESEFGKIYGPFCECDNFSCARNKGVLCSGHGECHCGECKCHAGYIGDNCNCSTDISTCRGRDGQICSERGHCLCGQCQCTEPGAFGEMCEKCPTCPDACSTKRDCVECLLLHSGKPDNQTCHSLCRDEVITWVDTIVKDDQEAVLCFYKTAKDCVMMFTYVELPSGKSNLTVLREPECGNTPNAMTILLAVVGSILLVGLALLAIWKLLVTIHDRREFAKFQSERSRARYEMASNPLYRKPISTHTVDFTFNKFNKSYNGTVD
T2 sequence (P02702 20-234): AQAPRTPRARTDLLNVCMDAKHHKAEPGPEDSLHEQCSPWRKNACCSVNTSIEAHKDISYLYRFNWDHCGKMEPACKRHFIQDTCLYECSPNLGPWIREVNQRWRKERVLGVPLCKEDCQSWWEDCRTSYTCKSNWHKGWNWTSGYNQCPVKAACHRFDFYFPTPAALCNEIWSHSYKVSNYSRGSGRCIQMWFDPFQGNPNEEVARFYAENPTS

cyclo(ARGD-Mamb) [XJ735]: the “blocking of α5β1” value on α5β1 is reported as “does not block”. Also, the “blocking of αvβ5” value at αvβ5 is listed as “does not block”.

As usually defined, the IC50 is the concentration needed to halve the response being measured. Cbz-Pro-Leu-Gly-{NHOH} [PEPTIDE A]: in the data set with human MMP-1 [1], the IC50 is 40000 nM. Moreover, in the data set with human MMP-1 [2], the “CONCENTRATION OF PEPTIDE (with significant inhibitory effect)” value is given as >10^−5M.

`Nc1nc2ncc(CNc3ccc(C(=O)N[C@@H](CCC(=O)NCCCOCCOCCOCCCNc4c(NCCOCCOCCNc5nc(Nc6ccc(CCC(C(=O)O)N7CCN(C(CCC(=O)NCC(=O)Nc8c(Br)c(C(=O)N(CC(O)C(O)C(O)C(O)CO)CC(O)C(O)C(O)C(O)CO)c(Br)c(C(=O)N(CC(O)C(O)C(O)C(O)CO)CC(O)C(O)C(O)C(O)CO)c8Br)C(=O)O)CCN(C(CCC(=O)NCC(=O)Nc8c(Br)c(C(=O)N(CC(O)C(O)C(O)C(O)CO)CC(O)C(O)C(O)C(O)CO)c(Br)c(C(=O)N(CC(O)C(O)C(O)C(O)CO)CC(O)C(O)C(O)C(O)CO)c8Br)C(=O)O)CCN(C(CCC(=O)NCC(=O)Nc8c(Br)c(C(=O)N(CC(O)C(O)C(O)C(O)CO)CC(O)C(O)C(O)C(O)CO)c(Br)c(C(=O)N(CC(O)C(O)C(O)C(O)CO)CC(O)C(O)C(O)C(O)CO)c8Br)C(=O)O)CC7)cc6)nc(Nc6ccc(CCC(C(=O)O)N7CCN(C(CCC(=O)NCC(=O)Nc8c(Br)c(C(=O)N(CC(O)C(O)C(O)C(O)CO)CC(O)C(O)C(O)C(O)CO)c(Br)c(C(=O)N(CC(O)C(O)C(O)C(O)CO)CC(O)C(O)C(O)C(O)CO)c8Br)C(=O)O)CCN(C(CCC(=O)NCC(=O)Nc8c(Br)c(C(=O)N(CC(O)C(O)C(O)C(O)CO)CC(O)C(O)C(O)C(O)CO)c(Br)c(C(=O)N(CC(O)C(O)C(O)C(O)CO)CC(O)C(O)C(O)C(O)CO)c8Br)C(=O)O)CCN(C(CCC(=O)NCC(=O)Nc8c(Br)c(C(=O)N(CC(O)C(O)C(O)C(O)CO)CC(O)C(O)C(O)C(O)CO)c(Br)c(C(=O)N(CC(O)C(O)C(O)C(O)CO)CC(O)C(O)C(O)C(O)CO)c8Br)C(=O)O)CC7)cc6)n5)c(=O)c4=O)C(=O)O)cc3)nc2c(=O)[nH]1` (some centres unmarked) [BIO-FOLATE.I]: the “contrast at the level of the tumour (MRI)” value in the data set with tumours (between 30 minutes and 24 hours, in particular 1 to 2 hours after injection) was “very clear”. In the data set on tumours (versus products of the prior art), the “heightening of the tumours, duration” value was “longer lasting than with products of the prior art”. In addition, the “binding to FBP (folate binding protein) in vitro” value in data set [3] is given as “binds specifically to FBP”. Further, the “amount of product specifically bound and internalized in KB cells” value with KB cells was “Correct capture”. The “molar r1” value in [4] was 53 mM⁻¹ s⁻¹. In addition, the “accumulation in the tumours” value in the data set with KB tumours (15 μmol/kg) is reported as “excellent accumulation”. Further, the “decrease of product in the tumour by folic acid” value in the data set on KB tumours (competition with free folate, times 4 and 24 h) was 2 times less. Moreover, the “injected dose found in the tumour” value with KB tumours (female, nude, mouse, in vivo, iv) was 5-8%. Also, the “injected theoretical dose found in the tumours” value in the data set on KB tumours (folate-free diet, at 4 h) is on record as 14%; in the data set with KB tumours (folate-free diet, at 72 h), 7%. In addition, the “effect of prior injection of free folic acid on tumour Gd” value with KB tumours (free folic at 25 μmol/kg before the product) was “decrease the Gd concentrations assayed in the tumours”. For the same molecule, in the data set with KB tumours (in vivo studies (biodistribution, MRI)), the activity in vivo entry was “P860 is inactive in vivo unlike BIO-FOLATE.I and BIO-FOLATE.II”.

In the case of `C#CCN(Cc1ccc2nc(N)[nH]c(=O)c2c1)c1ccc(C(=O)N[C@@H](CCC(=O)O)C(=O)O)cc1` [CB3717], in the data set on FBP, the “affinity for FBP relative to folic acid” value is “affinity greater than folic acid”.

As usually defined, the Kd is a measure of binding affinity in units of concentration. For the molecule `NC1=NC2=C(S[C@H](CCc3ccc(C(=O)N[C@@H](CCC(=O)O)C(=O)O)s3)CN2)C(O)N1` (some centres unmarked), the Kd on FBP is 0.0032 nM.

`CNC[C@H](O)[C@@H](O)[C@H](O)[C@H](O)CO.O=C([O-])CN1CCN(CC(=O)[O-])CCN(CC(=O)O)CCN(CC(=O)[O-])CC1.[Gd+3]` [Dotarem]: in the data set with KB tumours (mouse, in vivo), the “injected theoretical dose found in the tumours” value is 1-2% and the “intratumour amounts corrected for g of tissue” value is recorded as “negligable beyond 4 h”.

For `CC(C)C[C@@H](NC(=O)[C@@H]1CCCN1C(=O)CNC(=O)c1ccc(NC(=S)Nc2ccc(CCC(C(=O)O)N3CCN(CC(=O)O)CCN(CC(=O)O)CCN(CC(=O)O)CC3)cc2)cc1)C(=O)N[C@@H](C)C(=O)NO` (some centres unmarked) [Example P947], the IC50 on human MMP-1 [1] was 1000 nM. In addition, on human MMP-1 [2] (concentration of peptide 10^−5M), the “SIGNIFICANT INHIBITORY EFFECT” value was 86%. Moreover, the “CONCENTRATION OF PEPTIDE (with significant inhibitory effect)” value at human MMP-1 [2] is 10^−5M.

For the molecule `CN(Cc1ccc2nc(N)[nH]c(=O)c2c1)c1ccc(C(=O)NC(CCC(=O)O)C(=O)O)s1` (centres unmarked) [Example 2-NH2-ZD1694], in the data set on FBP, the “affinity for FBP relative to folic acid” value is “affinity greater than folic acid”.

As for `Nc1nc2ccc(NCc3ccc(C(=O)N[C@@H](CCC(=O)O)C(=O)O)cc3)cc2c(=O)[nH]1` [IAHQ], the “affinity for FBP relative to folic acid” value in the data set on FBP is “affinity greater than folic acid”.

Regarding `Nc1nc(O)c2c(CCc3ccc(C(=O)N[C@@H](CCC(=O)O)C(=O)O)cc3)c[nH]c2n1` [pemetrexed], the “affinity for FBP relative to folic acid” value in the data set on FBP is “affinity greater than folic acid”.
